Assay results: ChEMBL document CHEMBL1201862, “PubChem BioAssay data set” (2004)
Activity calls are given as the source filed them.

What was measured:
[1] = target: T1, Oxysterols receptor LXR-beta (Homo sapiens, UniProt P55055); type: functional, cell-based;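 further: agonist activity at LXR measured by a cell-based luminescence readout across a dose range, run as a counterscreen for daf-12 agonists; HEK293 cells with Gal4-LXR fusion and GAL4-driven luciferase reporter; potency for activation of Gal4-LXR reporter so compounds are agonists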
T1 sequence (P55055 whole entry): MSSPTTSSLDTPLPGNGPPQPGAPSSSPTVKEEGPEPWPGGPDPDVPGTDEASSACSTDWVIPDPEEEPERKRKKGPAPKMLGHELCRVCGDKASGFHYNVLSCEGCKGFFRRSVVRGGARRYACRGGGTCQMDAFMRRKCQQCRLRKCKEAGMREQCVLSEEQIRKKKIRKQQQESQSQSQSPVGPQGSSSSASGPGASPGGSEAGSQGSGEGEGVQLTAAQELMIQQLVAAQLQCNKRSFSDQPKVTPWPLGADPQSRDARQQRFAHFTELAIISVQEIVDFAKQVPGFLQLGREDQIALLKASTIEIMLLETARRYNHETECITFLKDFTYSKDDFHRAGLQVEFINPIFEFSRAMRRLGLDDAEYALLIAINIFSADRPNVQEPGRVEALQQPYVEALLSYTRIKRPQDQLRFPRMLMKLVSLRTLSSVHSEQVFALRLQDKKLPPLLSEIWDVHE

[2] = growth suppression of PTEN-null colon cells, dose response, cell-based, HCT116 PTEN knockout (AID 1047); type: functional;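 further: HCT116 colon tumor cells with PTEN knocked out; cells exposed to compound for 60 hours before readout; potency for loss of cell viability measured by luminescence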
[3] = growth suppression of beta-catenin-knockout colon cells, dose response, cell-based, HCT116, human colon tumor (AID 1045); type: functional;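 further: HCT116 colon tumor cells with beta catenin knocked out; cells exposed to compound for 60 hours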
[4] = inhibitors of intracellular T. cruzi replication, confirmation, NIH3T3 host cells, beta-gal luminescence (AID 2044); type: functional, cell-based;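 further: intracellular parasites grown in NIH/3T3 mouse fibroblasts as host cells; luminescent beta-galactosidase reporter signal from transgenic T. cruzi replicating inside host cells; inhibitors lower the luminescence signal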
[5] = cytotoxicity toward NIH3T3 fibroblasts, dose response, counter-screen, cell-based, ATP luminescence, mouse fibroblasts (AID 2010); type: functional;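 further: cells exposed to compound for about 90 hours before reading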
cells [6] = experiment: cells
[7] = target: T2, Heat shock factor protein 1 (Mus musculus, UniProt P38532); experiment: HSF1 potentiators in luciferase reporter cells, confirmation, cell-based, NIH3T3, luminescence, dose retest (AID 435004); type: functional;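 further: stress induced by proteasome inhibitor MG132 added 30 min after compound; luciferase reporter driven by HSF1 response element in NIH3T3 cells; actives raise luminescence as potentiators of the MG132 stress response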
T2 sequence (P38532 whole entry): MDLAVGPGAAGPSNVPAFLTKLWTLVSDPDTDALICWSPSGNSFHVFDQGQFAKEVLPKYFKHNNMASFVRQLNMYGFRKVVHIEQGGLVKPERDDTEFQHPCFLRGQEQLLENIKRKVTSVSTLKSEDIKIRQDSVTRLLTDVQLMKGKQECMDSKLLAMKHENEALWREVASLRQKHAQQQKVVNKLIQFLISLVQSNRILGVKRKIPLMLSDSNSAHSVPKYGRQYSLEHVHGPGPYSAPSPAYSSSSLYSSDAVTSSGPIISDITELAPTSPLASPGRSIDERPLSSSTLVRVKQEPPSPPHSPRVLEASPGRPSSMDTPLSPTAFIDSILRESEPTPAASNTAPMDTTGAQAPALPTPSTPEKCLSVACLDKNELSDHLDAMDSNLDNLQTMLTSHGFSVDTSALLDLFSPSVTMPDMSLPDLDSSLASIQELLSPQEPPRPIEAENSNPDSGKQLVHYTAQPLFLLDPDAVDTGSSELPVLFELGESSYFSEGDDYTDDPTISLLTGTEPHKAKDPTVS

[8] = target: T3, Ubiquitin-conjugating enzyme E2 N (Homo sapiens, UniProt P61088); type: functional;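 further: Dose-response confirmation in a TR-FRET assay detecting UBC13-driven polyubiquitin chain formation, inhibition measured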
T3 sequence (P61088 whole entry): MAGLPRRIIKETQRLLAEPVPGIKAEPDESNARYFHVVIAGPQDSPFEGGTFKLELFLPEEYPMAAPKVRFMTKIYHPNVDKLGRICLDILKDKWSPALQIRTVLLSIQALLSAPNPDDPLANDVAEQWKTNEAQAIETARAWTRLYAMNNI

Protein skinhead-1 = target: T4, Protein skinhead-1 (Caenorhabditis elegans, UniProt P34707); type: functional
T4 sequence (P34707 whole entry): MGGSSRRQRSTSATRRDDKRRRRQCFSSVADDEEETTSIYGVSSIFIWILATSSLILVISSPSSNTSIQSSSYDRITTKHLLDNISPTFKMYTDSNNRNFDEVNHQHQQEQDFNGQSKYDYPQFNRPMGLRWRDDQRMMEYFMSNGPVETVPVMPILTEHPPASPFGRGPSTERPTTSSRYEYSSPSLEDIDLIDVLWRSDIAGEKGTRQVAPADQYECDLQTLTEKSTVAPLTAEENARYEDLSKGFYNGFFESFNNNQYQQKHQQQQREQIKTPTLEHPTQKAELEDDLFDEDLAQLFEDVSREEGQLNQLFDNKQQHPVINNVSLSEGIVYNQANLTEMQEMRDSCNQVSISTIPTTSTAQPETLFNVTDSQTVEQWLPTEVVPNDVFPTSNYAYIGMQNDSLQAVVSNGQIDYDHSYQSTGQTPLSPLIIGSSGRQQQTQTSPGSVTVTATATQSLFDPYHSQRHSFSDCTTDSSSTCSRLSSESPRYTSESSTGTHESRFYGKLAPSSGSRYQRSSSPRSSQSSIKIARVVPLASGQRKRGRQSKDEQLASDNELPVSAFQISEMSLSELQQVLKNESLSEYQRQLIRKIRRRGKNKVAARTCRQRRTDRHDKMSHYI

cells [9] = experiment: cells; remark: listed apart in the source
[10] = NIH-3T3 fibroblast cytotoxicity, dose response, cytotoxicity control, cell-based, fluorescence, Alamar Blue, secondary assay (AID 2327); type: functional;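 further: NIH-3T3 mouse fibroblasts cultured with fluconazole at 8 µg/mL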
[11] = HEp-2 cell cytotoxicity, dose response, cytotoxicity control for RSV inhibitor project, HTS (AID 2410); type: functional; conditions: human respiratory syncytial virus
[12] = C. albicans growth with fluconazole, confirmation, fluorescence, retest (AID 2467); type: functional, cell-based
[13] = target: T5, Calpain-2 catalytic subunit (Sus scrofa, UniProt P43367); experiment: pig calpain II inhibitor potency, dose response, biochemical, fluorogenic peptide substrate (AID 1420); type: functional
T5 sequence (P43367 whole entry): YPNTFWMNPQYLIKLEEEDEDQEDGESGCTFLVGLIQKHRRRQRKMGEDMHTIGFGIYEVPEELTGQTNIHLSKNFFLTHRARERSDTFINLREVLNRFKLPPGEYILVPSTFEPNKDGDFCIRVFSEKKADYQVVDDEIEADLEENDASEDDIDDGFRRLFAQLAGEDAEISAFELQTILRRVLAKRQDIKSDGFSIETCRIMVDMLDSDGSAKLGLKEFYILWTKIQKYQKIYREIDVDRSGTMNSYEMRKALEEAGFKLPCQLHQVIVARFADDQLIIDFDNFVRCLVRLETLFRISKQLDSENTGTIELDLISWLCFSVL

In the case of `CCOC(=O)c1c(C)oc2c1cc(O)c1ccccc12`, the EC50 [1] is reported as > 67.5 µM (inactive).

In the case of `O=C(/C=C/c1ccccc1)Nc1nnc(SCC(=O)c2ccc3ccccc3c2)s1`, the EC50 [2] is reported as 9.17 µM (active) and the EC50 [3] is reported as 9.72 µM (active).

With `C=CCSc1nc2sc3c(c2c(=O)n1-c1ccccc1)CCN(C)C3` the EC50 [4] was < 0.1 µM (active), the EC50 [5] was > 60 µM (not active) and the EC50 (cells [6]) was 0.474 µM (active).

For `O=C(NNCc1ccccc1)c1ccccn1`, the EC50 [1] was > 67.6 µM (inactive).

With `CCn1nc(C)c(CN2CCCC(C(=O)c3cccc(OC(C)C)c3)C2)c1C` (stereo unspecified) the EC50 [4] was < 0.1 µM (active), the EC50 [5] was > 60 µM (not active) and the EC50 (cells [6]) was 0.21 µM (active).

With `Cc1ccc(CN2CCN(CC(C)C)C(CCO)C2)s1` (stereo unspecified) the EC50 [7] was 98.2 µM (active) and the EC50 [1] was > 67.6 µM (inactive).

For `COc1ccc2cc3cc(C(=O)Nc4ccccc4N4CCN(C)CC4)oc3nc2c1`, the EC50 [4] was 1.65 µM (active), the EC50 [2] was 1.43 µM (active) and the EC50 [5] was 4.47 µM (active). For the same compound, the EC50 [3] was 2.25 µM (active) and the IC50 [8] was > 20 µM (inactive).

With `c1cncc(-c2noc(-c3ccc4ccccc4c3)n2)c1` the EC50 [1] was > 67.5 µM (inactive).

With `O=C(CSc1nc2ccccc2c2nc3ccccc3n12)NCc1ccco1` the EC50 [7] was > 260 µM (inactive), the IC50 (Protein skinhead-1) was > 100 µM (inactive) and the IC50 (cells [9]) was 45.6 µM (active).

In the case of `Cc1c2ccccc2nc2c(F)c(NCCO)c(F)c(F)c12`, the EC50 [10] is reported as > 160 µM (inactive), the CC50 [11] is reported as 1.77 µM (active) and the EC50 [12] is reported as > 38 µM (not active). For the same compound, the IC50 (cells [9]) was 1.53 µM (active).

For `O=C(OCc1nnc(-c2ccccc2)o1)C12CC3CC(CC(Br)(C3)C1)C2`, the IC50 [13] was 3.14 µM (not active).
